The source of these data is patent US11857519B2, “Compounds and methods for the targeted degradation of enhancer of zeste homolog 2 polypeptide” (Arvinas Operations, Inc., priority 2016, dated 2024).

T1 sequence (Q15910 whole entry): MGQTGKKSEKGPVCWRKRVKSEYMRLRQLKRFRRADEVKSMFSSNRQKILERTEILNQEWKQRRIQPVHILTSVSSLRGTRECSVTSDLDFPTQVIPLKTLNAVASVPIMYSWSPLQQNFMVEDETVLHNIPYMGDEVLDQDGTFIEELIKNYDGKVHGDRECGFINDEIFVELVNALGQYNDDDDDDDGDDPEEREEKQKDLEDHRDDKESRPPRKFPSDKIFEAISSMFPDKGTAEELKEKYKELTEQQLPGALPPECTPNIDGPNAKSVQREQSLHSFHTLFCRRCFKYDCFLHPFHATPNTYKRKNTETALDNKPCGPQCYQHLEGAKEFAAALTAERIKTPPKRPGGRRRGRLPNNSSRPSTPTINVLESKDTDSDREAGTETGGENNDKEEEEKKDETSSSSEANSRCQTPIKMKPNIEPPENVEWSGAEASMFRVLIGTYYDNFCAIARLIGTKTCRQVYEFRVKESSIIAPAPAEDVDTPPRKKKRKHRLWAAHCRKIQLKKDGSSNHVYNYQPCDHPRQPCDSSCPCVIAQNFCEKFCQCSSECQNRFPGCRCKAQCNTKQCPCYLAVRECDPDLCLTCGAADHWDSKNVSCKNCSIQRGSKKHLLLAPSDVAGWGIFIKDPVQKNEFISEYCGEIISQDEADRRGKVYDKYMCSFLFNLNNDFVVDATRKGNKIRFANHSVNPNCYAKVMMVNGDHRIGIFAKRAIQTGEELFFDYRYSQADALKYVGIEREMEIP
T1 sequence (O75530 whole entry partner): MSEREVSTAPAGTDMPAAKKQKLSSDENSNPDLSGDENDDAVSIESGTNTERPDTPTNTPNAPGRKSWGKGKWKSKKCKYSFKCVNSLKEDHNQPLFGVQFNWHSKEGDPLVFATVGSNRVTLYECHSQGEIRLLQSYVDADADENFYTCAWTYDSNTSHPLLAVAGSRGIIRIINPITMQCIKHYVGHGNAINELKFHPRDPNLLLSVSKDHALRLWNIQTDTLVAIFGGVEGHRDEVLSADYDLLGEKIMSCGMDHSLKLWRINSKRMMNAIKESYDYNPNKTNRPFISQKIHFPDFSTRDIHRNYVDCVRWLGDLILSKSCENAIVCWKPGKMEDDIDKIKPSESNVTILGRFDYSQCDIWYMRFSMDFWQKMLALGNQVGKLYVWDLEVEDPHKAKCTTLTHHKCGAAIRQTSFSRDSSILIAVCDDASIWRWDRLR
T1 sequence (Q15022 whole entry partner): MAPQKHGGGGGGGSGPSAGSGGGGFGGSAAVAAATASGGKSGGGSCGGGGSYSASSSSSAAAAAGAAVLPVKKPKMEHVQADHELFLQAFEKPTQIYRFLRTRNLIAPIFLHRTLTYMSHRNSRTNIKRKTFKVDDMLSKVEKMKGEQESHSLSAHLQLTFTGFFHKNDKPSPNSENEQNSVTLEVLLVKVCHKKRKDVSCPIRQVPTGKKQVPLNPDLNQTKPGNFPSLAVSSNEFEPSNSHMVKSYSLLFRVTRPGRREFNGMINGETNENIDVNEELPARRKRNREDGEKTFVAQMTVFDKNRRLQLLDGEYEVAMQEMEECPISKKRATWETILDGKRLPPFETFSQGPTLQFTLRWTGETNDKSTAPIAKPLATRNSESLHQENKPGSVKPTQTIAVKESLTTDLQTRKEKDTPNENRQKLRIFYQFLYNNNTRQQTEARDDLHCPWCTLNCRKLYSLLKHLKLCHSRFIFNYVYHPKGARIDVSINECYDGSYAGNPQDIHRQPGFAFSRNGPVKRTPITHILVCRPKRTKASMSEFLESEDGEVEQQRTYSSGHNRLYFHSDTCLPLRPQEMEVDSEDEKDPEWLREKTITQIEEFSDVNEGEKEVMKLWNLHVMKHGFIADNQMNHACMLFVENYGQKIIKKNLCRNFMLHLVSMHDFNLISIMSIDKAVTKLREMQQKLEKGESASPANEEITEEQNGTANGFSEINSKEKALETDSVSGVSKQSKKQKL

The experiment addresses T1, EZH2 (Homo sapiens, UniProt Q15910).
T1 construct: Protocol of the Cellular Assay of Target Protein Degradation (VCaP Cells, ELISA); endogenous in cells; host or cells: VCaP cells
The experiment is described as follows: Cellular assay of target protein degradation (VCaP cells, ELISA). The experiment is classed as cell-based. The conditions noted are these: 4 hours, protein degradation range at indicated concentration (relative to DMSO control). Summed up: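 EZH2 level measured by sandwich ELISA (TMB, A450 minus A562 background) in lysates of VCaP cells. Cells had been cultured at least 3 days in 5% CSS RPMI before 4 h compound exposure in 0.1% DMSO.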
`Cc1cc(C)c(CNC(=O)c2cc(-c3ccc(CN4CCN(CCOCCCCCOCCCCCOCC(=O)N[C@H](C(=O)N5C[C@H](O)C[C@H]5C(=O)NCc5ccc(-c6scnc6C)cc5)C(C)(C)C)CC4)cc3)cc3c2ccn3C2CCCC2)c(=O)[nH]1` [Compound 6, 1-cyclopentyl-N-[(4,6-dimethyl-2-oxo-1,2-dihydropyridin-3-yl)methyl]-6-[4-[(4-{2-[(5-{[5-({[(2S)-1-[(2S,4R)-4-hydroxy-2-({[4-(4-methyl-1,3-thiazol-5-yl)phenyl]methyl}carbamoyl)pyrrolidin-1-yl]-3,3-dimethyl-1-oxobutan-2-yl]carbamoyl}methoxy)pentyl]oxy}pentyl)oxy]ethyl}piperazin-1-yl)methyl]phenyl}-1H-indole-4-carboxamide]: the “percent target protein degradation class” value is “B (B = degradation between 30% and 60%)”.
For `CCN(c1cc(-c2ccc(CN3CCN(CCCOCC(=O)N[C@H](C(=O)N4C[C@H](O)C[C@H]4C(=O)N[C@@H](C)c4ccc(-c5scnc5C)cc4)C(C)(C)C)CC3)cc2)cc(C(=O)NCc2c(C)cc(C)[nH]c2=O)c1C)C1CCOCC1` [Compound 118, (2S,4R)-1-((S)-2-(2-(3-(4-((3′-(((4,6-dimethyl-2-oxo-1,2-dihydropyridin-3-yl)methyl)carbamoyl)-5′-(ethyl(tetrahydro-2H-pyran-4-yl)amino)-4′-methyl-[1,1′-biphenyl]-4-yl)methyl)piperazin-1-yl)propoxy)acetamido)-3,3-dimethylbutanoyl)-4-hydroxy-N-((S)-1-(4-(4-methylthiazol-5-yl)phenyl)ethyl)pyrrolidine-2-carboxamide], the “percent target protein degradation class” value was “A (A = degradation more than 60%)”.
Regarding `CCN(c1cc(-c2cccc(OCCOCCOCCOCCOCCOCCNc3cccc4c3C(=O)N(C3CCC(=O)NC3=O)C4=O)c2)cc(C(=O)NCc2c(C)cc(C)[nH]c2=O)c1C)C1CCOCC1` (stereo not shown) [Compound 21, N-[(4,6-dimethyl-2-oxo-1,2-dihydropyridin-3-yl)methyl]-5-[3-({1-[2-(2,6-dioxopiperidin-3-yl)-1,3-dioxo-2,3-dihydro-1H-isoindol-4-yl]-4,7,10,13,16-pentaoxa-1-azaoctadecan-18-yl}oxy)phenyl]-3-[ethyl(oxan-4-yl)amino]-2-methylbenzamide], the “percent target protein degradation class” value was “B (B = degradation between 30% and 60%)”.
Consider `CCN(c1cc(-c2ccc(OCCCOCCCOCC(=O)N[C@H](C(=O)N3C[C@H](O)C[C@H]3C(=O)NCc3ccc(-c4scnc4C)cc3)C(C)(C)C)cc2)cc(C(=O)NCc2c(C)cc(C)[nH]c2=O)c1C)C1CCOCC1` [Compound 48, (2S,4R)-1-[(2S)-2-[2-(3-{3-[4-(3-{[(4,6-dimethyl-2-oxo-1,2-dihydropyridin-3-yl)methyl]carbamoyl}-5-[ethyl(oxan-4-yl)amino]-4-methylphenyl)phenoxy]propoxy}propoxy)acetamido]-3,3-dimethylbutanoyl]-4-hydroxy-N-{[4-(4-methyl-1,3-thiazol-5-yl)phenyl]methyl}pyrrolidine-2-carboxamide], for which the “percent target protein degradation class” value is listed as “A (A = degradation more than 60%)”.
The same measure for `CCN(c1cc(-c2ccc(OCCCOCC(=O)N[C@H](C(=O)N3C[C@H](O)C[C@H]3C(=O)NCc3ccc(-c4scnc4C)cc3)C(C)(C)C)cc2)cc(C(=O)NCc2c(C)cc(C)[nH]c2=O)c1C)C1CCOCC1` [Compound 41, (2S,4R)-1-[(2S)-2-(2-{3-[4-(3-{[(4,6-dimethyl-2-oxo-1,2-dihydropyridin-3-yl)methyl]carbamoyl}-5-[ethyl(oxan-4-yl)amino]-4-methylphenyl)phenoxy]propoxy}acetamido)-3,3-dimethylbutanoyl]-4-hydroxy-N-{[4-(4-methyl-1,3-thiazol-5-yl)phenyl]methyl}pyrrolidine-2-carboxamide]: “A (A = degradation more than 60%)”.
For the compound “(2R,3S,4R,5S)-3-(3-chloro-2- fluorophenyl)-4-(4-chloro-2- fluorophenyl)-4-cyano-N-[4- ({1-[4-(3-{[(4,6-dimethyl-2- oxo-1,2-dibydropyridin-3- yl)methyl]carbamoyl}-5- [ethyl(oxan-4-yl)amino]-4- methylphenyl)phenyl]-1,4,7,10- tetraoxadodecan-12- yl}carbamoyl)-2- methoxyphenyl]-5-(2,2- dimethylpropyl)pyrrolidine-2- carboxamide [Compound 24]”, the “percent target protein degradation class” value was “B (B = degradation between 30% and 60%)”.
Regarding `CCN(c1cc(-c2ccc(OCCCCOc3ccc4c(c3)C(=O)N(C(C(=O)N3C[C@H](O)C[C@H]3C(=O)N[C@@H](C)c3ccc(-c5scnc5C)cc3)C(C)C)C4)cc2)cc(C(=O)NCc2c(C)cc(C)[nH]c2=O)c1C)C1CCOCC1` (stereo partly drawn) [Compound 103, (2S,4R)-1-(2-(6-(4-((3′-(((4,6-dimethyl-2-oxo-1,2-dihydropyridin-3-yl)methyl)carbamoyl)-5′-(ethyl(tetrahydro-2H-pyran-4-yl)amino)-4′-methyl-[1,1′-biphenyl]-4-yl)oxy)butoxy)-1-oxoisoindolin-2-yl)-3-methylbutanoyl)-4-hydroxy-N-((S)-1-(4-(4-methylthiazol-5-yl)phenyl)ethyl)pyrrolidine-2-carboxamide], the “percent target protein degradation class” value was “B (B = degradation between 30% and 60%)”.
`CCN(c1cc(-c2ccc(CN3CCN(CCCCOCC(=O)N[C@H](C(=O)N4C[C@H](O)C[C@H]4C(=O)N[C@@H](C)c4ccc(-c5scnc5C)cc4)C(C)(C)C)CC3)cc2)cc(C(=O)NCc2c(C)cc(C)[nH]c2=O)c1C)C1CCOCC1` [Compound 117, (2S,4R)-1-((S)-2-(2-(4-(4-((3′-(((4,6-dimethyl-2-oxo-1,2-dihydropyridin-3-yl)methyl)carbamoyl)-5′-(ethyl(tetrahydro-2H-pyran-4-yl)amino)-4′-methyl-[1,1′-biphenyl]-4-yl)methyl)piperazin-1-yl)butoxy)acetamido)-3,3-dimethylbutanoyl)-4-hydroxy-N-((S)-1-(4-(4-methylthiazol-5-yl)phenyl)ethyl)pyrrolidine-2-carboxamide]: the “percent target protein degradation class” value is listed as “A (A = degradation more than 60%)”.
For the compound `CCN(c1cc(-c2ccc(OCCCCCOCCOc3cc(-c4scnc4C)ccc3CNC(=O)[C@@H]3C[C@@H](O)CN3C(=O)[C@H](C(C)C)N3Cc4ccccc4C3=O)cc2)cc(C(=O)NCc2c(C)cc(C)[nH]c2=O)c1C)C1CCOCC1` [Compound 50, (2S,4R)-N-({2-[2-({5-[4-(3-{[(4,6-dimethyl-2-oxo-1,2-dihydropyridin-3-yl)methyl]carbamoyl}-5-[ethyl(oxan-4-yl)amino]-4-methylphenyl)phenoxy]pentyl}oxy)ethoxy]-4-(4-methyl-1,3-thiazol-5-yl)phenyl}methyl)-4-hydroxy-1-[(2S)-3-methyl-2-(1-oxo-2,3-dihydro-1H-isoindol-2-yl)butanoyl]pyrrolidine-2-carboxamide], the “percent target protein degradation class” value is on record as “A (A = degradation more than 60%)”.
The same measure for `CCN(c1cc(-c2ccc(OCCCOCCCOc3ccc4c(c3)C(=O)N(C3CCC(=O)NC3=O)C4=O)cc2)cc(C(=O)NCc2c(C)cc(C)[nH]c2=O)c1C)C1CCOCC1` (stereo not shown) [Compound 62, N-[(4,6-dimethyl-2-oxo-1,2-dihydropyridin-3-yl)methyl]-5-{4-[3-(3-{[2-(2,6-dioxopiperidin-3-yl)-1,3-dioxo-2,3-dihydro-1H-isoindol-5-yl]oxy}propoxy)propoxy]pheny 1}-3-[ethyl(oxan-4-yl)amino]-2-methylbenzamide]: “B (B = degradation between 30% and 60%)”; for `CCN(c1cc(-c2ccc(OCCOCCOCC(=O)N[C@H](C(=O)N3C[C@@H](O)C[C@@H]3C(=O)N[C@@H](C)c3ccc(-c4scnc4C)cc3)C(C)(C)C)cc2)cc(C(=O)NCc2c(C)cc(C)[nH]c2=O)c1C)C1CCOCC1` [Compound 96, (2R,4S)-1-((S)-2-(2-(2-(2-((3′-(((4,6-dimethyl-2-oxo-1,2-dihydropyridin-3-yl)methyl)carbamoyl)-5′-(ethyl(tetrahydro-2H-pyran-4-yl)amino)-4′-methyl-[1,1′-biphenyl]-4-yl)oxy)ethoxy)ethoxy)acetamido)-3,3-dimethylbutanoyl)-4-hydroxy-N-((S)-1-(4-(4-methylthiazol-5-yl)phenyl)ethyl)pyrrolidine-2-carboxamide]: “B (B = degradation between 30% and 60%)”; for `CCN(c1cc(-c2ccc(OCCCOCCOCC(=O)N[C@H](C(=O)N3C[C@H](O)C[C@H]3C(=O)NCc3ccc(-c4scnc4C)cc3)C(C)(C)C)cc2)cc(C(=O)NCc2c(C)cc(C)[nH]c2=O)c1C)C1CCOCC1` [Compound 45, (2S,4R)-1-[(2S)-2-[2-(2-{3-[4-(3-{[(4,6-dimethyl-2-oxo-1,2-dihydropyridin-3-yl)methyl]carbamoyl}-5-[ethyl(oxan-4-yl)amino]-4-methylphenyl)phenoxy]propoxy}ethoxy)acetamido]-3,3-dimethylbutanoyl]-4-hydroxy-N-{[4-(4-methyl-1,3-thiazol-5-yl)phenyl]methyl}pyrrolidine-2-carboxamide]: “B (B = degradation between 30% and 60%)”.
Regarding `Cc1cc(C)c(CNC(=O)c2c(C)n(C(C)C3CCN(C(=O)COCCOCCOCCNc4cccc5c4C(=O)N(C4CCC(=O)NC4=O)C5=O)CC3)c3ccccc23)c(=O)[nH]1` (stereo not shown) [Compound 7, N-[(4,6-dimethyl-2-oxo-1,2-dihydropyridin-3-yl)methyl]-1-[1-(1-{1-[2-(2,6-dioxopiperidin-3-yl)-1,3-dioxo-2,3-dihydro-1H-isoindol-4-yl]-4,7,10-trioxa-1-azadodecanoyl}piperidin-4-yl)ethyl]-2-methyl-1H-indole-3-carboxamide], the “percent target protein degradation class” value was “B (B = degradation between 30% and 60%)”.
